Patent publication US20050090652A1, “Highly homogenous serum albumin as chiral selector” (priority 2002, published 2005)
Where two headings read alike, the source gives them in different places.

What was measured:
[1] = biological target: T1, recombinant human serum albumin (rHA) immobilised on silica (Homo sapiens, UniProt P02768); experiment: Enantioselective HPLC analysis by the rHA-based column; conditions: 1-propanol/phosphate buffer (pH 7.5) 15/85 (v/v), 0.6 ml/min flow rate
[2] = biological target: albumin (Homo sapiens, UniProt P02768); conditions: binding to albumin; Peters et al.; Kragh-Hansen 1990; cited from earlier work
[3] = biological target: T1, recombinant human serum albumin (rHA) immobilised on silica; conditions: pH 7.5

Sequence of albumin (P02768 25-609, species assumed): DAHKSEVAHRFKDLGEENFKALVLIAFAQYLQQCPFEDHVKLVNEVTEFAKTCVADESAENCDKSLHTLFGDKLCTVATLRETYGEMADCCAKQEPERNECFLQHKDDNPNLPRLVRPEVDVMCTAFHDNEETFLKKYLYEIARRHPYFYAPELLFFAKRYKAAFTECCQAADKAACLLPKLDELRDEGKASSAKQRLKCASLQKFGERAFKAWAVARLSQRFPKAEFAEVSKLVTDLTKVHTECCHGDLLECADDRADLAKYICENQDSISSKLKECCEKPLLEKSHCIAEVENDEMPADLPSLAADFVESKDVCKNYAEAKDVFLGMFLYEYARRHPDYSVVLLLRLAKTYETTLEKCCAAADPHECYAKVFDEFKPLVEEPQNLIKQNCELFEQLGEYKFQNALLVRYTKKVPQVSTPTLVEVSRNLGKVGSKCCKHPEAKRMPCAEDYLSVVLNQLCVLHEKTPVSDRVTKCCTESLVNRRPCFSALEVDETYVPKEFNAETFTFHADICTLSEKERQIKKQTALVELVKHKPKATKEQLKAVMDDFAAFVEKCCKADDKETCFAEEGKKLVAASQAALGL
T1 sequence (P02768 25-609): as the sequence (P02768 25-609, species assumed) above

Molecule | affinity relative to the other enantiomer (antipode) [2] [fold] | other results
rac-lorazepam hemisuccinate |  | enantioselectivity (α) [1]: 5.3
O=C(O)CCC(=O)O[C@@H]1N=C(c2ccccc2)c2cc(Cl)ccc2NC1=O [(S)-oxazepam-hemisuccinate] | 35 | 
CC(C)CC(NC(=O)c1ccccc1)C(=O)O (racemic) [N-benzoyl-DL-leucine] |  | enantioselectivity (α) [3]: 2.8
N[C@@H](Cc1c[nH]c2ccccc12)C(=O)O [L-tryptophan] | 100 | 
